Experiments:
perfused rabbit ear = test: Blood-flow change in perfused isolated rabbit ear, vaso-dilator activity (Ringer-Norfenefrin solution)
Description: (3) Blood-flow change in an isolated rabbit ear
The tests were carried out according to Krakow-Pissemski (Pflugers Archiv 151 (1913), page 583 and 156 (1914), page 426). In Table 5a the estimated values of the vaso-constrictor activity in Ringer solutions of varying concentrations are given and in Table 5b values for vasodilatory activity in Ringer-Norfenefrin solutions of varying concentrations are given. As a comparison, the values obtained with the known preparation aescin sodium are given.

[1] = Toxicity in the mouse (Litchfield and Wilcoxon); assay type: in vivo; settings: mouse, in vivo
Description: (6) Toxicity in the mouse
Toxicity was determined according to Litchfield and Wilcoxon (J. Pharmacol. exp. Ther. 97 (1949), page 399) in the mouse. In comparison, the values with the known substance aescin sodium salt were determined. Comparative tests with 0.1% solution, of venous and optical compatibility on the rabbit yielded similar results.

[2] = tested on: isolated guinea-pig heart; test: Relative coronary blood-flow change in isolated guinea-pig heart (Langendorff)
Description: (4) Relative coronary blood-flow change in an isolated guinea-pig heart.
The tests were carried out according to the method of Langendorff (Pflugers Archiv. 61 (1895), page 219).
In Table 5, the change in coronary blood flow after administration of various quantities of the test substance is compared with that after administration of the known compounds heptaminol and Aescin sodium salt.

[3] = tested on: permeability of the capillaries; test: Histamine rash test (modified Halpern), capillary permeability; assay type: in vivo; settings: 10.0 mg/kg i.p., 30 minutes before histamine
Description: The test according to Halpern (Presse medicale 65 (1949), page 949) was used in modified form. The suppressive effect of the compounds according to the invention on the permeability of the capillaries was tested. The blue coloration induced by intravenous administration of trypan blue at two intracutaneous histamine injection points per animal, (trypan blue administered 2 minutes before the histamine), was estimated according to the following scale of values:
indications of blue coloration
clear blue coloration =4
stong blue coloration =6
The preceding evaluation was made from the combined effect at the two injection points.
The test substances were administered i.p. 30 minutes before the histamine injection.

[4] = tested on: carrageenin oedema in the rat paw; test: Suppression of carrageenin oedema in the rat paw (Siegmund); assay type: in vivo; settings: 3 h p.a.
Description: (7) Suppression of carrageenin oedema in the rat paw
The inflammation-reducing and anti-oedematous effects on carrageenin and serotonin oedemas in the rat paw were studied according to Siegmund et al (Proc. Soc. exp. Biol. Med. 95 (1957), page 729). The values are given as percentages, based on the values obtained in control tests using a dummy procedure. In this way, the antiphlogistic activity of the substances according to the invention was tested.

[5] = tested on: writhing movements in the mouse; test: Writhing test (Winter); assay type: in vivo; settings: 50 mg/kg p.o.
Source text: The analgesic activity of the compounds according to the invention were studied by the method of Winter et al (Proc. Soc. exp. Biol. Med, 111 (1962), page 544), in which the suppression of writhing movements in the mouse was observed.

[6] = 10 μg (first figure where two are given)
[7] = 30 μg (first figure where two are given)

Structure (SMILES): COCCCNCc1c(C)cc(C)cc1C [compound 20]
- Relative change in blood flow, vaso-dilator activity (perfused rabbit ear; 3 × 10^-5 g/ml): +30
- Relative change in blood flow, vaso-dilator activity (perfused rabbit ear; 10^-4 g/ml): +131
- Relative change in blood flow, vaso-dilator activity (perfused rabbit ear; 10^-5 g/ml): +4
- Relative change in blood flow, vaso-dilator activity (perfused rabbit ear; 10^-6 g/ml): +12
- LD50 ([1]; ip): 50 to 100 mg/kg

Structure (SMILES): CCCCCC(C)NCc1ccccc1Cl (centres unmarked) [compound 9]
- LD50 ([1]; ip): 100 to 250 mg/kg

Structure (SMILES): CCCCCC(C)NCc1c(C)c(C)cc(C)c1C (centres unmarked) [compound 1]
- Relative change in coronary blood flow, second figure after slash ([2]; 10 μg): -14
- Relative change in coronary blood flow [2, 6]: +53
- Relative change in coronary blood flow, second figure after slash ([2]; 30 μg): -11
- Relative change in coronary blood flow [2, 7]: +130
- LD50 ([1]; ip): 50 to 100 mg/kg

Structure (SMILES): CCCCCC(C)NCc1cccc(Br)c1 (centres unmarked) [compound 11]
- LD50 ([1]; ip): 100 to 250 mg/kg

Structure (SMILES): CCCCCC(C)N(Cc1c(C)cc(C)cc1C)CP(C)(C)=O (centres unmarked) [compound 30]
- Relative change in blood flow, vaso-dilator activity (perfused rabbit ear; 3 × 10^-5 g/ml): +67
- Relative change in blood flow, vaso-dilator activity (perfused rabbit ear; 10^-5 g/ml): +79
- Relative change in coronary blood flow [2, 6]: +158
- Relative change in coronary blood flow [2, 7]: +211
- Relative change in coronary blood flow ([2]; 100 μg (first figure where two are given)): +232
- LD50 ([1]; ip): 100 to 250 mg/kg

Structure (SMILES): CCCCCC(C)NCc1ccccc1Br (centres unmarked) [compound 12]
- Relative change in blood flow, vaso-dilator activity (perfused rabbit ear; 3 × 10^-5 g/ml): +12
- LD50 ([1]; ip): 100 to 250 mg/kg

Structure (SMILES): CCCCCNCc1c(C)cc(C)cc1C [compound 14]
- LD50 ([1]; ip): 50 to 100 mg/kg

Structure (SMILES): Cc1cc(C)c(CNCCCOC(C)C)c(C)c1 [compound 23]
- LD50 ([1]; ip): 100 to 250 mg/kg

Structure (SMILES): CCCC(C)NCc1c(C)cc(C)cc1C (centres unmarked) [compound 24]
- LD50 ([1]; ip): 50 to 100 mg/kg

Structure (SMILES): Cc1cc(C)c(CNC(C)CCCC(C)(C)O)c(C)c1 (centres unmarked) [compound 31]
- Relative change in blood flow, vaso-dilator activity (perfused rabbit ear; 10^-4 g/ml): +87
- Relative change in blood flow, vaso-dilator activity (perfused rabbit ear; 10^-5 g/ml): +41
- Relative change in blood flow, vaso-dilator activity (perfused rabbit ear; 10^-6 g/ml): +12
- Histamine rash test, blue coloration score (0 = none, 2 = indications, 4 = clear, 6 = strong) [3]: 2.6
- LD50 ([1]; iv): 50 to 100 mg/kg
- Suppression of carrageenin oedema in the paw (antiphlogistic activity) ([4]; 200 mg/kg p.o.): 26%

Structure (SMILES): CCOCCCNCc1c(C)cc(C)cc1C [compound 21]
- Relative change in coronary blood flow [2, 6]: +22
- Relative change in coronary blood flow [2, 7]: +23
- LD50 ([1]; ip): 50 to 100 mg/kg

Structure (SMILES): CCCCCC(C)NCc1ccc([N+](=O)[O-])cc1 (centres unmarked) [compound 13]
- LD50 ([1]; ip): 100 to 250 mg/kg
- Suppression of carrageenin oedema in the paw (antiphlogistic activity) ([4]; 63 mg/kg p.o.): 17%
- Suppression of carrageenin oedema in the paw (antiphlogistic activity) ([4]; 100 mg/kg p.o.): 59%

Structure (SMILES): CCCCCC(C)NCc1cc(C(C)(C)C)ccc1C (centres unmarked) [compound 6]
- Relative change in coronary blood flow [2, 6]: +129
- Relative change in coronary blood flow [2, 7]: +187

Structure (SMILES): CCCCCC(C)NCc1ccc(Cl)cc1 (single isomer, unassigned) [compound 8]
- Relative change in blood flow, vaso-dilator activity (perfused rabbit ear; 3 × 10^-5 g/ml): +66
- Relative change in blood flow, vaso-dilator activity (perfused rabbit ear; 10^-6 g/ml): +3
- LD50 ([1]; ip): 25 to 100 mg/kg
- Suppression of writhing movements [5]: 15%

Source: US4312861A, “Pharmaceutical compositions containing N-alkyl-N-(nuclearly-substituted) benzylamines having vasotonia-regulating activity” (Hoechst Aktiengesellschaft, priority 1974, dated 1982)
